How the values were obtained:
Type in all cases: cell-based
[1] = test system: RH7777 rat hepatoma cells; test: SRB cytotoxicity assay, RH7777 control cell line; settings: SRB assay, 96 h exposure; control cell line
Protocol: (§1) For in vitro cytotoxicity screening, 1000 to 5000 cells were plated into each well of 96-well plates depending on growth rate, and exposed to different concentrations of a test compound for 96 h in three to five replicates. All the compounds were dissolved in dimethyl sulfoxide at 5 to 20 mM, and diluted to desired concentrations in complete culture medium. Cell numbers at the end of the drug treatment were measured by the SRB assay (Gududuru et al., “Synthesis and Biological Evaluation of Novel Cytotoxic Phospholipids for Prostate Cancer,” Bioorg. Med. Chem. Lett. 14:4919-4923 (2004); Rubinstein et al., “Comparison of in vitro Anticancer-Drug-Screening Data Generated with a Tetrazolium Assay Versus a Protein Assay Against a Diverse Panel of Human Tumor Cell Lines,” J. Natl. Cancer Inst. 82:1113-1118 (1990), each of which is hereby incorporated by reference in its entirety). Briefly, the cells were fixed with 10% of trichloroacetic acid, stained with 0.4% SRB, and the absorbances at 540 nm was measured using a plate reader (DYNEX Technologies, Chantilly, Va.). […] A sandwich ELISA (Roche, Mannheim, Germany) utilizing monoclonal antibodies specific for DNA and histones was used to quantify degree of apoptosis induced by the analogs after 72 h exposure. This assay measures DNA-histone complexes (mono- and oligonucleosomes) released into cytoplasm from the nucleus during apoptosis.

[2] = test system: DU-145 human prostate cancer cells; test: SRB cytotoxicity assay, DU-145; settings: read-out: IC50 DU-145, 96 h exposure, prostate cancer cell line
Protocol: as §1

[3] = test system: PC-3 human prostate cancer cells; test: SRB cytotoxicity assay, PC-3; settings: 96 h exposure, prostate cancer cell line
Protocol: as §1

[4] = test system: LNCaP human prostate cancer cells; test: SRB cytotoxicity assay, LNCaP; settings: 96 h exposure, prostate cancer cell line
Protocol: as §1

[5] = test system: PPC-1 human prostate cancer cells; test: SRB cytotoxicity assay, PPC-1; settings: 96 h exposure, prostate cancer cell line
Protocol: (§2) Dr. Mitchell Steiner at University of Tennessee Health Science Center, kindly provided PPC-1 and TSU-Pr1 cells.
as §1

[6] = test system: TSU-Pr1 human prostate cancer cells; test: SRB cytotoxicity assay, TSU-Pr1; settings: 96 h exposure, prostate cancer cell line
Protocol: as §2, §1

[7] = test system: human breast cancer cell line (MCF-7); test: SRB cytotoxicity assay, MCF-7; settings: SRB assay
Protocol: as §1
In vitro cytotoxicity assay was performed by the same sulforhodamine B (SRB) assay (described above). The compounds shown in Table 8 below where tested for activity against the breast cancer and ovarian cancer cell lines.
RH7777 and CV-1 cells were used as negative controls and MCF-7 cell line (breast cancer) was included to examine the selectivity.

CV-1 cells = test: SRB cytotoxicity assay, CV-1 control cell line
Protocol: For in vitro cytotoxicity screening, 1000 to 5000 cells were plated into each well of 96-well plates depending on growth rate, and exposed to different concentrations of a test compound for 96 h in three to five replicates. All the compounds were dissolved in dimethyl sulfoxide at 5 to 20 mM, and diluted to desired concentrations in complete culture medium. Cell numbers at the end of the drug treatment were measured by the SRB assay (Gududuru et al., “Synthesis and Biological Evaluation of Novel Cytotoxic Phospholipids for Prostate Cancer,” Bioorg. Med. Chem. Lett. 14:4919-4923 (2004); Rubinstein et al., “Comparison of in vitro Anticancer-Drug-Screening Data Generated with a Tetrazolium Assay Versus a Protein Assay Against a Diverse Panel of Human Tumor Cell Lines,” J. Natl. Cancer Inst. 82:1113-1118 (1990), each of which is hereby incorporated by reference in its entirety). Briefly, the cells were fixed with 10% of trichloroacetic acid, stained with 0.4% SRB, and the absorbances at 540 nm was measured using a plate reader (DYNEX Technologies, Chantilly, Va.). […] A sandwich ELISA (Roche, Mannheim, Germany) utilizing monoclonal antibodies specific for DNA and histones was used to quantify degree of apoptosis induced by the analogs after 72 h exposure. This assay measures DNA-histone complexes (mono- and oligonucleosomes) released into cytoplasm from the nucleus during apoptosis. RH7777 cells were employed because of nonspecific cytotoxicity of compound 4 in receptor-negative cells as well as receptor-positive prostate cancer cells.
RH7777 and CV-1 cells were used as negative controls and MCF-7 cell line (breast cancer) was included to examine the selectivity. 5-Fluorouracil was used as reference drug.

[8] = test system: five human prostate cancer cell lines (DU-145, PC-3, LNCaP, PPC-1, and TSU-Pr1); test: SRB assay, statements on the panel of prostate cancer cell lines
Protocol: Cell numbers at the end of the drug treatment were measured by the SRB assay (Gududuru et al., “Synthesis and Biological Evaluation of Novel Cytotoxic Phospholipids for Prostate Cancer,” Bioorg. Med. Chem. Lett. 14:4919-4923 (2004); Rubinstein et al., “Comparison of in vitro Anticancer-Drug-Screening Data Generated with a Tetrazolium Assay Versus a Protein Assay Against a Diverse Panel of Human Tumor Cell Lines,” J. Natl. Cancer Inst. 82:1113-1118 (1990), each of which is hereby incorporated by reference in its entirety). Briefly, the cells were fixed with 10% of trichloroacetic acid, stained with 0.4% SRB, and the absorbances at 540 nm was measured using a plate reader (DYNEX Technologies, Chantilly, Va.). […] A sandwich ELISA (Roche, Mannheim, Germany) utilizing monoclonal antibodies specific for DNA and histones was used to quantify degree of apoptosis induced by the analogs after 72 h exposure. This assay measures DNA-histone complexes (mono- and oligonucleosomes) released into cytoplasm from the nucleus during apoptosis. […] EDG-ology of Liver Injury,” Biochimica et Biophysica ACT 1582:251-256 (2002), which is hereby incorporated by reference in its entirety) was also utilized to understand whether the antiproliferative activity of these derivatives is mediated through inhibition of LPL receptors.

SKMEL-188 melanoma cells = test: Sulforhodamine B assay in melanoma cells, SKMEL-188; settings: SK-MEL-188, 48 h, SRB assay, 48 h incubation; melanoma cell line
Protocol: (§3) SKMEL-188 cells were cultured in Ham's F10 medium (Gibco Invitrogen, Inc., Grand Island, N.Y.) plus 5% fetal bovine serum (Cellgro Mediatech, Inc., Herndon, Va.) and 1% antibiotic/antimycotic mixture (Sigma-Aldrich, Inc., St. Louis, Mo.). WM-164 cells (gift of Dr. Meenhard Herlyn, Wistar Inst., Philadelphia, Pa.) and human dermal fibroblasts (Cascade Biologics, Inc., Portland, Oreg.) were cultured in DMEM medium (Cellgro Mediatech, Inc.) supplemented with 5% fetal bovine serum, 1% antibiotic.antimycotic mixture and bovine insulin ([…], Sigma-Aldrich, Inc.). Human dermal fibroblasts were used as a control to examine the effects of compounds on stromal environment. Thus, the effect of the various compounds on melanoma cells versus fibroblasts would document their potential selectivity.
(§4) Sulforhodamine B Assay: Cells were seeded into 96-well plates at 5000 cells/well. After 12 hours, media were changed and serial dilutions of compounds were added. Cells were incubated with each compound for 48 hours. Fresh media containing the test compound were changed ever 24 hours. Thereafter, total cell protein corresponding to cell numbers (both viable and non-viable cells) were measured using the sulforhodamine B (SRB) assay according to manufacturer's protocol (Sigma-Aldrich, Inc.) (Rubinstein et al., “Comparison of in vitro Anticancer Drug-screening Data Generated with a Tetrazolium Assay Versus a Protein Assay Against a Diverse Panel of Human Tumor Cell Lines,” J. Natl. Cancer Inst. 82:1113-1118 (1990); Dothager et al., “Synthesis and Identification of Small Molecules that Potently Induce Apoptosis in Melanoma Cells Through GI Cell Cycle Arrest,” J. Am. Chem. Soc. 127:8686-8696 (2005), each of which is hereby incorporated by reference in its entirety). Briefly, cells were fixed with trichloracetic acid, washed and incubated with sulforhodamine B for 30 minutes. After another wash, dye incorporated into the cells was solubilized and measured using a plate reader at 565 nm.
(§5) Statistical Analysis: Data is presented as mean±SEM (n=6-8). […] Statistical analyses were performed with Student's t-test (*p<0.05; **p<0.005).
(§6) DTIC and Taxol were assayed in the same way for comparison and served as internal quality controls in the different batches of assay. For comparison, the activities of 5R and 5S were measured.

WM-164 cells = test: Sulforhodamine B assay in melanoma cells, WM-164; settings: Homo sapiens, WM164, read-out: IC50 WM-164; SRB assay, 48 h incubation; melanoma cell line
Protocol: as §3, §4, §5, §6

[9] = test system: SKMEL-188 and WM-164 cell lines; test: SRB assay, statements on both melanoma cell lines
Protocol: Louis, Mo.). WM-164 cells (gift of Dr. Meenhard Herlyn, Wistar Inst., Philadelphia, Pa.) and human dermal fibroblasts (Cascade Biologics, Inc., Portland, Oreg.) were cultured in DMEM medium (Cellgro Mediatech, Inc.) supplemented with 5% fetal bovine serum, 1% antibiotic.antimycotic mixture and bovine insulin ([…], Sigma-Aldrich, Inc.). Human dermal fibroblasts were used as a control to examine the effects of compounds on stromal environment. Thus, the effect of the various compounds on melanoma cells versus fibroblasts would document their potential selectivity. Sulforhodamine B Assay: Cells were seeded into 96-well plates at 5000 cells/well. After 12 hours, media were changed and serial dilutions of compounds were added. Cells were incubated with each compound for 48 hours. Fresh media containing the test compound were changed ever 24 hours. Thereafter, total cell protein corresponding to cell numbers (both viable and non-viable cells) were measured using the sulforhodamine B (SRB) assay according to manufacturer's protocol (Sigma-Aldrich, Inc.) (Rubinstein et al., “Comparison of in vitro Anticancer Drug-screening Data Generated with a Tetrazolium Assay Versus a Protein Assay Against a Diverse Panel of Human Tumor Cell Lines,” J. Natl. Cancer Inst. 82:1113-1118 (1990); Dothager et al., “Synthesis and Identification of Small Molecules that Potently Induce Apoptosis in Melanoma Cells Through GI Cell Cycle Arrest,” J. Am. Chem. Soc. 127:8686-8696 (2005), each of which is hereby incorporated by reference in its entirety). Briefly, cells were fixed with trichloracetic acid, washed and incubated with sulforhodamine B for 30 minutes. After another wash, dye incorporated into the cells was solubilized and measured using a plate reader at 565 nm. Statistical Analysis: Data is presented as mean±SEM (n=6-8). […] Statistical analyses were performed with Student's t-test (*p<0.05; **p<0.005). […] DTIC and Taxol were assayed in the same way for comparison and served as internal quality controls in the different batches of assay. For comparison, the activities of 5R and 5S were measured.

human dermal fibroblasts = test: Sulforhodamine B assay, fibroblast control cells; settings: Homo sapiens, Fibroblast, 48 h, SRB assay, 48 h incubation
Protocol: as §3, §4, §5, §6

SMILES	IC50 [8] [µM]	IC50 (SKMEL-188 melanoma cells) [µM]	IC50 (WM-164 cells) [µM]	IC50 ([9]; 48 h, read-out: IC50 against both melanoma cell lines) [µM]	IC50 [1] [µM]	IC50 [2] [µM]	IC50 [3] [µM]	IC50 [4] [µM]	IC50 [5] [µM]	IC50 [6] [µM]	IC50 [7] [µM]	IC50 (CV-1 cells) [µM]	IC50 (human dermal fibroblasts) [µM]	Killing of melanoma cells (cytostatic versus cytotoxic) ([9]; higher concentrations)
NCCCCNCCCNC(=O)C(N)CO (stereo not shown) [Compound 215]	> 100				> 100	> 100	> 100	> 100	> 100	> 100	> 100	> 100		
NCCCCNC(=O)CN1C(=O)CSC1c1ccccc1 (stereo not shown) [Compound 218]	> 100				> 100	> 100	> 100	> 100	> 100	> 100	> 100	> 100		
NCCCCNCCCNC(=O)CN1C(=O)CSC1c1ccccc1 (stereo not shown) [Compound 219]	> 100				> 100	> 100	> 100	> 100	> 100	> 100	> 100	> 100		
CN(C)/N=N/c1[nH]cnc1C(N)=O [DTIC, dacarbazine, reference compound]		> 100	> 100	> 100										
CC(=O)O[C@H]1C(=O)[C@@]2(C)[C@H]([C@H](OC(=O)c3ccccc3)[C@]3(O)C[C@H](OC(=O)[C@H](O)[C@@H](NC(=O)c4ccccc4)c4ccccc4)C(C)=C1C3(C)C)[C@]1(OC(C)=O)CO[C@@H]1C[C@@H]2O [Taxol, reference compound]		3.8	6.1										> 10	not effective in killing the cells

Now from value to molecule, other results behind:

IC50 [8] [µM]	IC50 (SKMEL-188 melanoma cells) [µM]	IC50 (WM-164 cells) [µM]	IC50 ([9]; 48 h, read-out: IC50 against both melanoma cell lines) [µM]	SMILES	IC50 [1] [µM]	IC50 [2] [µM]	IC50 [3] [µM]	IC50 [4] [µM]	IC50 [5] [µM]	IC50 [6] [µM]	IC50 [7] [µM]	IC50 (CV-1 cells) [µM]	IC50 (human dermal fibroblasts) [µM]	Killing of melanoma cells (cytostatic versus cytotoxic) ([9]; higher concentrations)
> 100				COc1cc(C2NC(C(=O)NCCCCN)CS2)cc(OC)c1OC (mixture of isomers) [Compound 222]	> 100	> 100	> 100	> 100	> 100	> 100	> 100	> 100		
> 100				COc1cc(C2NC(C(=O)NCCCNCCCCN)CS2)cc(OC)c1OC (mixture of isomers) [Compound 223]	> 100	> 100	> 100	> 100	> 100	> 100	> 100	> 100		
> 100				NCCCCNC(=O)C(N)CO (stereo not shown) [Compound 214]	> 100	> 100	> 100	> 100	> 100	> 100	> 100	> 100		
